Laboratory results: patent US20020128438A1, “DNA cassette for the production of secretable recombinant trimeric TRAIL proteins, tetracycline/ doxycycline-inducible adeno-associated virus vector, their combination and use in gene therapy” (priority 2000, published 2002)
*1 amine or outer side, *2 acyl side, *3 side chain or, on linkers, in order; H or OH if unused. Where a SMILES comes first, the peptide text is derived from it. Bridges are numbered along the chain shown (N, C = ends). Roman numbers before positions name the chains, in order. [ ]: non-standard residue; d: D form. Actinocin(9to1) = Cc1c2oc3c(C)ccc(C(=O)[*:1])c3nc-2c(C(=O)[*:2])c(N)c1=O; NMeV = CN[C@H](C(=O)O)C(C)C; Sar = CNCC(=O)O

What was measured:
[1] = test system: various cancer cell lines
mice = conditions: systemic delivery; cited from earlier work
monkey = conditions: cited from earlier work

Compound	concentration at which enhancing activity of ActD was obtained ([1]; enhancement of TRAIL-induced apoptosis) [ng/mL]	effect of ActD on TRAIL-induced apoptosis ([1]; various cancer cell lines)	cytotoxicity in mice (mice)	cytotoxicity in monkey (monkey)
Cc1c2oc3c(C)ccc(C(=O)N[C@@H]4C(=O)N[C@H](C(C)C)C(=O)N5CCC[C@H]5C(=O)N(C)CC(=O)N(C)[C@@H](C(C)C)C(=O)O[C@@H]4C)c3nc-2c(C(=O)N[C@@H]2C(=O)N[C@H](C(C)C)C(=O)N3CCC[C@H]3C(=O)N(C)CC(=O)N(C)[C@@H](C(C)C)C(=O)O[C@@H]2C)c(N)c1=O [ActD, Actinomycin D] (I: T[dV]P[Sar][NMeV] / II: T[dV]P[Sar][NMeV]; ester I:1-I:C, II:1-II:C; linker I:N-II:N via Actinocin(9to1))	100	greatly enhanced		
TRAIL: TNF family member, type II transmembrane apoptosis-inducing ligand			no detectable cytotoxicity	no detectable cytotoxicity
